Assay: CNS Vital Signs (CNSVS) computerized cognition battery
Format: in vivo, human
Conditions: fasting
Description: Cognitive flexibility, attention, executive function, memory, reasoning, motor control, psychomotor speed, reaction time, and information processing speed were assessed predose and at 2 and 6 h following TAK-063 treatment using the CNSVS computerized cognition battery. The CNSVS cognition battery is a well-validated, sensitive measure and included the following tests: verbal and visual memory (VBM and VIM) tests, finger-tapping test, symbol digit coding test, Stroop test, shifting attention test, the nonverbal reasoning test, and the 4-part continuous performance test (Gualtieri and Johnson [2006]). Standardized domain scores for cognitive flexibility, composite memory, executive functioning, processing speed, psychomotor speed, reaction time, reasoning, sustained attention, verbal memory, visual memory, and working memory were reported. In all domains, a decrease in the standardized domain score is indicative of impairment.
All statistical analyses were generated using SAS Version 9.2 (SAS, Cary, NC, USA). The PK parameters were derived using non-compartmental methods with WinNonlin Enterprise Version 6.3 (Pharsight Corp., Mountain View, CA, USA). Frequency or descriptive statistics were used for summary of data. Where indicated, percent coefficient of variation was included in the summary of continuous data. All statistical tests were 2-tailed at α = 0.05 level for significance unless otherwise stated. A power model was used to evaluate dose proportionality by race for fasted subjects; in the event of no observed race effect, dose proportionality was assessed for all subjects. To evaluate the food effect, a paired t test was performed on T max and natural log-transformed C max, and AUCs. An ANCOVA model with baseline scores and race as covariates was used to assess the effects of TAK-063 on CNSVS domain scores.

With `COc1cn(-c2ccc(-n3cccn3)cc2F)nc(-c2ccnn2-c2ccccc2)c1=O` [TAK-063] as the compound, how does the “Cognitive flexibility domain score, Difference (TAK-063 LS mean - placebo LS mean, change from baseline)” value (2 h postdose, 3 mg) read?
Its value is 1.3.

What about the “Composite memory domain score, Difference (TAK-063 LS mean - placebo LS mean, change from baseline)” value (2 h postdose, 3 mg) of the same compound?
Its value is -7.9.

And the “Executive functioning domain score, Difference (TAK-063 LS mean - placebo LS mean, change from baseline)” value (2 h postdose, 3 mg)?
The value was 0.4.

And the “Processing speed domain score, Difference (TAK-063 LS mean - placebo LS mean, change from baseline)” value (2 h postdose, 3 mg)?
The value was 2.2.

What about the “Psychomotor speed domain score, Difference (TAK-063 LS mean - placebo LS mean, change from baseline)” value (2 h postdose, 3 mg) of the same compound?
Its value is -1.5.

What about the “Reaction time domain score, Difference (TAK-063 LS mean - placebo LS mean, change from baseline)” value (2 h postdose, 3 mg) of the same compound?
The value was 4.1.

And the “Reasoning domain score, Difference (TAK-063 LS mean - placebo LS mean, change from baseline)” value (2 h postdose, 3 mg)?
The value was 5.7.

And the “Sustained attention domain score, Difference (TAK-063 LS mean - placebo LS mean, change from baseline)” value (2 h postdose, 3 mg)?
Its value is 4.6.

And the “Verbal memory domain score, Difference (TAK-063 LS mean - placebo LS mean, change from baseline)” value (2 h postdose, 3 mg)?
Its value is 0.9.

What about the “Visual memory domain score, Difference (TAK-063 LS mean - placebo LS mean, change from baseline)” value (2 h postdose, 3 mg) of the same compound?
The value was -10.3.

What about the “Working memory domain score, Difference (TAK-063 LS mean - placebo LS mean, change from baseline)” value (2 h postdose, 3 mg) of the same compound?
The value was 5.3.

And the “Cognitive flexibility domain score, Difference (TAK-063 LS mean - placebo LS mean, change from baseline)” value (2 h postdose, 10 mg)?
Its value is -3.1.

And the “Composite memory domain score, Difference (TAK-063 LS mean - placebo LS mean, change from baseline)” value (2 h postdose, 10 mg)?
The value was -5.2.

And the “Executive functioning domain score, Difference (TAK-063 LS mean - placebo LS mean, change from baseline)” value (2 h postdose, 10 mg)?
The value was -2.7.

What about the “Processing speed domain score, Difference (TAK-063 LS mean - placebo LS mean, change from baseline)” value (2 h postdose, 10 mg) of the same compound?
The value was 0.7.

And the “Psychomotor speed domain score, Difference (TAK-063 LS mean - placebo LS mean, change from baseline)” value (2 h postdose, 10 mg)?
The value was -8.5.

And the “Reaction time domain score, Difference (TAK-063 LS mean - placebo LS mean, change from baseline)” value (2 h postdose, 10 mg)?
The value was -2.3.

What about the “Reasoning domain score, Difference (TAK-063 LS mean - placebo LS mean, change from baseline)” value (2 h postdose, 10 mg) of the same compound?
The value was 10.8.

What about the “Sustained attention domain score, Difference (TAK-063 LS mean - placebo LS mean, change from baseline)” value (2 h postdose, 10 mg) of the same compound?
The value was 0.7.

And the “Verbal memory domain score, Difference (TAK-063 LS mean - placebo LS mean, change from baseline)” value (2 h postdose, 10 mg)?
The value was -4.0.

What about the “Visual memory domain score, Difference (TAK-063 LS mean - placebo LS mean, change from baseline)” value (2 h postdose, 10 mg) of the same compound?
The value was -3.3.

And the “Working memory domain score, Difference (TAK-063 LS mean - placebo LS mean, change from baseline)” value (2 h postdose, 10 mg)?
Its value is 1.1.

What about the “Cognitive flexibility domain score, Difference (TAK-063 LS mean - placebo LS mean, change from baseline)” value (2 h postdose, 30 mg) of the same compound?
The value was 0.2.

And the “Composite memory domain score, Difference (TAK-063 LS mean - placebo LS mean, change from baseline)” value (2 h postdose, 30 mg)?
The value was 2.8.

And the “Executive functioning domain score, Difference (TAK-063 LS mean - placebo LS mean, change from baseline)” value (2 h postdose, 30 mg)?
The value was 0.5.

And the “Processing speed domain score, Difference (TAK-063 LS mean - placebo LS mean, change from baseline)” value (2 h postdose, 30 mg)?
The value was 4.3.

And the “Psychomotor speed domain score, Difference (TAK-063 LS mean - placebo LS mean, change from baseline)” value (2 h postdose, 30 mg)?
Its value is -1.7.

What about the “Reaction time domain score, Difference (TAK-063 LS mean - placebo LS mean, change from baseline)” value (2 h postdose, 30 mg) of the same compound?
The value was 3.1.

What about the “Reasoning domain score, Difference (TAK-063 LS mean - placebo LS mean, change from baseline)” value (2 h postdose, 30 mg) of the same compound?
Its value is 6.4.

What about the “Sustained attention domain score, Difference (TAK-063 LS mean - placebo LS mean, change from baseline)” value (2 h postdose, 30 mg) of the same compound?
Its value is 10.3.

And the “Verbal memory domain score, Difference (TAK-063 LS mean - placebo LS mean, change from baseline)” value (2 h postdose, 30 mg)?
The value was 12.4.

And the “Visual memory domain score, Difference (TAK-063 LS mean - placebo LS mean, change from baseline)” value (2 h postdose, 30 mg)?
The value was -5.2.

And the “Working memory domain score, Difference (TAK-063 LS mean - placebo LS mean, change from baseline)” value (2 h postdose, 30 mg)?
Its value is 6.5.

What about the “Cognitive flexibility domain score, Difference (TAK-063 LS mean - placebo LS mean, change from baseline)” value (2 h postdose, 100 mg) of the same compound?
The value was -20.2.

What about the “Composite memory domain score, Difference (TAK-063 LS mean - placebo LS mean, change from baseline)” value (2 h postdose, 100 mg) of the same compound?
The value was -24.1.

And the “Executive functioning domain score, Difference (TAK-063 LS mean - placebo LS mean, change from baseline)” value (2 h postdose, 100 mg)?
Its value is -17.8.

What about the “Processing speed domain score, Difference (TAK-063 LS mean - placebo LS mean, change from baseline)” value (2 h postdose, 100 mg) of the same compound?
Its value is -6.1.

What about the “Psychomotor speed domain score, Difference (TAK-063 LS mean - placebo LS mean, change from baseline)” value (2 h postdose, 100 mg) of the same compound?
Its value is -15.2.

And the “Reaction time domain score, Difference (TAK-063 LS mean - placebo LS mean, change from baseline)” value (2 h postdose, 100 mg)?
The value was -15.6.

And the “Reasoning domain score, Difference (TAK-063 LS mean - placebo LS mean, change from baseline)” value (2 h postdose, 100 mg)?
The value was 4.6.

And the “Sustained attention domain score, Difference (TAK-063 LS mean - placebo LS mean, change from baseline)” value (2 h postdose, 100 mg)?
The value was -7.0.

And the “Verbal memory domain score, Difference (TAK-063 LS mean - placebo LS mean, change from baseline)” value (2 h postdose, 100 mg)?
The value was -24.0.

And the “Visual memory domain score, Difference (TAK-063 LS mean - placebo LS mean, change from baseline)” value (2 h postdose, 100 mg)?
The value was -15.4.

What about the “Working memory domain score, Difference (TAK-063 LS mean - placebo LS mean, change from baseline)” value (2 h postdose, 100 mg) of the same compound?
Its value is -3.8.

And the “Cognitive flexibility domain score, Difference (TAK-063 LS mean - placebo LS mean, change from baseline)” value (2 h postdose, 300 mg)?
The value was -30.9.

And the “Composite memory domain score, Difference (TAK-063 LS mean - placebo LS mean, change from baseline)” value (2 h postdose, 300 mg)?
The value was -26.9.

What about the “Executive functioning domain score, Difference (TAK-063 LS mean - placebo LS mean, change from baseline)” value (2 h postdose, 300 mg) of the same compound?
The value was -29.0.

And the “Processing speed domain score, Difference (TAK-063 LS mean - placebo LS mean, change from baseline)” value (2 h postdose, 300 mg)?
Its value is -17.6.

And the “Psychomotor speed domain score, Difference (TAK-063 LS mean - placebo LS mean, change from baseline)” value (2 h postdose, 300 mg)?
The value was -18.0.

And the “Reaction time domain score, Difference (TAK-063 LS mean - placebo LS mean, change from baseline)” value (2 h postdose, 300 mg)?
Its value is -10.3.

And the “Reasoning domain score, Difference (TAK-063 LS mean - placebo LS mean, change from baseline)” value (2 h postdose, 300 mg)?
The value was 0.5.

What about the “Sustained attention domain score, Difference (TAK-063 LS mean - placebo LS mean, change from baseline)” value (2 h postdose, 300 mg) of the same compound?
Its value is -9.0.

And the “Verbal memory domain score, Difference (TAK-063 LS mean - placebo LS mean, change from baseline)” value (2 h postdose, 300 mg)?
The value was -26.7.

What about the “Visual memory domain score, Difference (TAK-063 LS mean - placebo LS mean, change from baseline)” value (2 h postdose, 300 mg) of the same compound?
Its value is -17.2.

And the “Working memory domain score, Difference (TAK-063 LS mean - placebo LS mean, change from baseline)” value (2 h postdose, 300 mg)?
The value was -3.1.

What about the “Cognitive flexibility domain score, Difference (TAK-063 LS mean - placebo LS mean, change from baseline)” value (2 h postdose, 1000 mg) of the same compound?
Its value is -19.6.

And the “Composite memory domain score, Difference (TAK-063 LS mean - placebo LS mean, change from baseline)” value (2 h postdose, 1000 mg)?
The value was -16.6.

And the “Executive functioning domain score, Difference (TAK-063 LS mean - placebo LS mean, change from baseline)” value (2 h postdose, 1000 mg)?
Its value is -16.6.

And the “Processing speed domain score, Difference (TAK-063 LS mean - placebo LS mean, change from baseline)” value (2 h postdose, 1000 mg)?
Its value is -17.9.

What about the “Psychomotor speed domain score, Difference (TAK-063 LS mean - placebo LS mean, change from baseline)” value (2 h postdose, 1000 mg) of the same compound?
The value was -18.7.

And the “Reaction time domain score, Difference (TAK-063 LS mean - placebo LS mean, change from baseline)” value (2 h postdose, 1000 mg)?
The value was -7.1.

What about the “Reasoning domain score, Difference (TAK-063 LS mean - placebo LS mean, change from baseline)” value (2 h postdose, 1000 mg) of the same compound?
Its value is -0.5.

What about the “Sustained attention domain score, Difference (TAK-063 LS mean - placebo LS mean, change from baseline)” value (2 h postdose, 1000 mg) of the same compound?
The value was -5.0.

What about the “Verbal memory domain score, Difference (TAK-063 LS mean - placebo LS mean, change from baseline)” value (2 h postdose, 1000 mg) of the same compound?
Its value is -10.0.

What about the “Visual memory domain score, Difference (TAK-063 LS mean - placebo LS mean, change from baseline)” value (2 h postdose, 1000 mg) of the same compound?
The value was -14.5.

And the “Working memory domain score, Difference (TAK-063 LS mean - placebo LS mean, change from baseline)” value (2 h postdose, 1000 mg)?
Its value is -2.5.

And the “Cognitive flexibility domain score, Difference (TAK-063 LS mean - placebo LS mean, change from baseline)” value (6 h postdose, 3 mg)?
The value was 2.9.

From paper PMC5063900, “A phase 1 study of the safety, tolerability, pharmacokinetics, and pharmacodynamics of TAK-063, a selective PDE10A inhibitor” (Psychopharmacology, 2016)
